Consider 47 compounds from patent US12421225B2, “Heteroaromatic amide derivative and medicament containing the same” (KAKEN PHARMACEUTICAL CO., LTD., priority 2018, dated 2025).

Where only a bound is given, the exact number is not on record here.

Series [1] addresses human Nav1.5 (Homo sapiens (Human), UniProt Q14524). Kind of series: Human Nav1.5 inhibitory activity evaluation (automated patch clamp QPatch16X, HEK293 cells stably expressing human Nav1.5). The class given is cell-based. The procedure, abridged:
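IC50 derived from concentration-response of inward current at the 20th of 20 action-potential-mimicking pulses (holding −80 mV, leak corrected with −100 mV step). HEK293 cells stably expressing human Nav1.5, room temperature, extracellular pH 7.4, intracellular CsF-based pH 7.3, 0.1% DMSO.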
A general note: In patch-clamp work, channel activity is measured electrically.

Series [2] concerns the target human Nav1.7 (Homo sapiens (Human), UniProt Q15858). Kind of series: Human Nav1.7 inhibitory activity evaluation (automated patch clamp QPatch16X, HEK293A cells stably expressing human Nav1.7 and human Navβ1). Format: cell-based. In a few lines: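 IC50 calculated from the concentration-response of inward current evoked by the second −10 mV, 50 ms depolarisation, which follows a 15 s conditioning step at roughly 30-40% inactivation and a 100 ms −120 mV interval. Cells: HEK293A expressing human Nav1.7/Navβ1, automated patch clamp, room temperature, 0.1% DMSO final.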

The mark [3] stands for this setting: HEK293 cells stably expressing human Nav1.5, automated patch clamp QPatch16X.
The mark [4] stands for this setting: HEK293A cells stably expressing human Nav1.7 and human Navβ1, automated patch clamp QPatch16X.
The mark [5] stands for this setting: human Nav1.5, automated patch clamp.
Setting [6] is: human Nav1.7, automated patch clamp.

Sequence of human Nav1.7 (Q15858 whole entry): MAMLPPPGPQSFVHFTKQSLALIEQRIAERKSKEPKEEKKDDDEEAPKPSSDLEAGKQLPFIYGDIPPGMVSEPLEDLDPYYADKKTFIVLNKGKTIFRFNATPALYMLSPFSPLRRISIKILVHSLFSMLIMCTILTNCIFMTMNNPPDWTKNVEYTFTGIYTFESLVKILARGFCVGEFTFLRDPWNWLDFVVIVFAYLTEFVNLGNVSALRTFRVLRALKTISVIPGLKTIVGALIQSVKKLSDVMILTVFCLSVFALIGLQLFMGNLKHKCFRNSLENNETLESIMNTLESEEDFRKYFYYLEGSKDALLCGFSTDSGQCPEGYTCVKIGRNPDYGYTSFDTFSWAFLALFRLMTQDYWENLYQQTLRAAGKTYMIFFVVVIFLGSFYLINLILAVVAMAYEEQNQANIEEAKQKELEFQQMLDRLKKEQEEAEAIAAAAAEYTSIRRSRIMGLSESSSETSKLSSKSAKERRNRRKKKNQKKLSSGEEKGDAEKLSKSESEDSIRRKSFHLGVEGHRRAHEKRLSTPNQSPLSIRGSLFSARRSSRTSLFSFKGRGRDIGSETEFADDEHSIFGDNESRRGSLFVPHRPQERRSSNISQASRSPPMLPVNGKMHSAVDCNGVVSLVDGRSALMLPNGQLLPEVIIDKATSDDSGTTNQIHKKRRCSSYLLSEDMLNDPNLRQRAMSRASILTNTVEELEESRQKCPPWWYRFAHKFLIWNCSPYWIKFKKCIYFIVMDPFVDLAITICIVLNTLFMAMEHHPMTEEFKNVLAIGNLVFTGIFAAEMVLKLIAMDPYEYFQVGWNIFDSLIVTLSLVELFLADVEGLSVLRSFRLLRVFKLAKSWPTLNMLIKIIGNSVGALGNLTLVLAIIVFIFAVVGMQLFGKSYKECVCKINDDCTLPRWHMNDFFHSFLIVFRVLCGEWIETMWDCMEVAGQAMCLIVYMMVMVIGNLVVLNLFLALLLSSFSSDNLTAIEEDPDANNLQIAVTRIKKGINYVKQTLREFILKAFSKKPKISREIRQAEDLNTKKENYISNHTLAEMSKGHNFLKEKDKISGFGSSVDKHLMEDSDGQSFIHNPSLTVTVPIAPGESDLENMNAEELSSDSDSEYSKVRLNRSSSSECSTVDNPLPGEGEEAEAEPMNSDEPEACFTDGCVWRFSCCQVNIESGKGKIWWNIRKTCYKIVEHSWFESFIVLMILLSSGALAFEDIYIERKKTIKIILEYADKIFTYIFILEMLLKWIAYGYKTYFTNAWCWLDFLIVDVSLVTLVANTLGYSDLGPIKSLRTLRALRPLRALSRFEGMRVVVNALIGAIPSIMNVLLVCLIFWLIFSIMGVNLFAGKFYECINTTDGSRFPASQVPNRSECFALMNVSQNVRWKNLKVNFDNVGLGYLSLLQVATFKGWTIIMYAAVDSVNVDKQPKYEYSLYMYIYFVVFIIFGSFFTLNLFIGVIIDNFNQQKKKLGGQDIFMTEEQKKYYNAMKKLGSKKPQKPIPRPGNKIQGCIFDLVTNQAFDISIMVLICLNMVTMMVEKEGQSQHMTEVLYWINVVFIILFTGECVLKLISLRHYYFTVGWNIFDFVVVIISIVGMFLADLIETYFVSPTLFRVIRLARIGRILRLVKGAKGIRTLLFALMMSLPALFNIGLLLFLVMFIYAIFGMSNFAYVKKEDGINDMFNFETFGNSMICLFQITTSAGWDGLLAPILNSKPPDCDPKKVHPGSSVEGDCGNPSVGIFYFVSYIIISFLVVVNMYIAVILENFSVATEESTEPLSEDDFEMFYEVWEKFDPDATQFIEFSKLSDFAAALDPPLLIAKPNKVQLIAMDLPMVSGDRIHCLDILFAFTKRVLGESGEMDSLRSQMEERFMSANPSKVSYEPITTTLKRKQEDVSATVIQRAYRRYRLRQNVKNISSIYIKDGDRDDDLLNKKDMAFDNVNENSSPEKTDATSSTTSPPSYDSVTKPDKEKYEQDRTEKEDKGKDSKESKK
Sequence of human Nav1.7 (Q07699 19-218 partner): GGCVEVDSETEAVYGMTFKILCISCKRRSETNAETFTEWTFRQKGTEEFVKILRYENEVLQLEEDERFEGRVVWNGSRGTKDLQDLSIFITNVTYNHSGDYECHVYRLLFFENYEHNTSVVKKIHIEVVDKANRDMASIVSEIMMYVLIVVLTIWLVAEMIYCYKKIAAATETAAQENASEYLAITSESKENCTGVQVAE
Sequence of human Nav1.5 (Q14524 whole entry): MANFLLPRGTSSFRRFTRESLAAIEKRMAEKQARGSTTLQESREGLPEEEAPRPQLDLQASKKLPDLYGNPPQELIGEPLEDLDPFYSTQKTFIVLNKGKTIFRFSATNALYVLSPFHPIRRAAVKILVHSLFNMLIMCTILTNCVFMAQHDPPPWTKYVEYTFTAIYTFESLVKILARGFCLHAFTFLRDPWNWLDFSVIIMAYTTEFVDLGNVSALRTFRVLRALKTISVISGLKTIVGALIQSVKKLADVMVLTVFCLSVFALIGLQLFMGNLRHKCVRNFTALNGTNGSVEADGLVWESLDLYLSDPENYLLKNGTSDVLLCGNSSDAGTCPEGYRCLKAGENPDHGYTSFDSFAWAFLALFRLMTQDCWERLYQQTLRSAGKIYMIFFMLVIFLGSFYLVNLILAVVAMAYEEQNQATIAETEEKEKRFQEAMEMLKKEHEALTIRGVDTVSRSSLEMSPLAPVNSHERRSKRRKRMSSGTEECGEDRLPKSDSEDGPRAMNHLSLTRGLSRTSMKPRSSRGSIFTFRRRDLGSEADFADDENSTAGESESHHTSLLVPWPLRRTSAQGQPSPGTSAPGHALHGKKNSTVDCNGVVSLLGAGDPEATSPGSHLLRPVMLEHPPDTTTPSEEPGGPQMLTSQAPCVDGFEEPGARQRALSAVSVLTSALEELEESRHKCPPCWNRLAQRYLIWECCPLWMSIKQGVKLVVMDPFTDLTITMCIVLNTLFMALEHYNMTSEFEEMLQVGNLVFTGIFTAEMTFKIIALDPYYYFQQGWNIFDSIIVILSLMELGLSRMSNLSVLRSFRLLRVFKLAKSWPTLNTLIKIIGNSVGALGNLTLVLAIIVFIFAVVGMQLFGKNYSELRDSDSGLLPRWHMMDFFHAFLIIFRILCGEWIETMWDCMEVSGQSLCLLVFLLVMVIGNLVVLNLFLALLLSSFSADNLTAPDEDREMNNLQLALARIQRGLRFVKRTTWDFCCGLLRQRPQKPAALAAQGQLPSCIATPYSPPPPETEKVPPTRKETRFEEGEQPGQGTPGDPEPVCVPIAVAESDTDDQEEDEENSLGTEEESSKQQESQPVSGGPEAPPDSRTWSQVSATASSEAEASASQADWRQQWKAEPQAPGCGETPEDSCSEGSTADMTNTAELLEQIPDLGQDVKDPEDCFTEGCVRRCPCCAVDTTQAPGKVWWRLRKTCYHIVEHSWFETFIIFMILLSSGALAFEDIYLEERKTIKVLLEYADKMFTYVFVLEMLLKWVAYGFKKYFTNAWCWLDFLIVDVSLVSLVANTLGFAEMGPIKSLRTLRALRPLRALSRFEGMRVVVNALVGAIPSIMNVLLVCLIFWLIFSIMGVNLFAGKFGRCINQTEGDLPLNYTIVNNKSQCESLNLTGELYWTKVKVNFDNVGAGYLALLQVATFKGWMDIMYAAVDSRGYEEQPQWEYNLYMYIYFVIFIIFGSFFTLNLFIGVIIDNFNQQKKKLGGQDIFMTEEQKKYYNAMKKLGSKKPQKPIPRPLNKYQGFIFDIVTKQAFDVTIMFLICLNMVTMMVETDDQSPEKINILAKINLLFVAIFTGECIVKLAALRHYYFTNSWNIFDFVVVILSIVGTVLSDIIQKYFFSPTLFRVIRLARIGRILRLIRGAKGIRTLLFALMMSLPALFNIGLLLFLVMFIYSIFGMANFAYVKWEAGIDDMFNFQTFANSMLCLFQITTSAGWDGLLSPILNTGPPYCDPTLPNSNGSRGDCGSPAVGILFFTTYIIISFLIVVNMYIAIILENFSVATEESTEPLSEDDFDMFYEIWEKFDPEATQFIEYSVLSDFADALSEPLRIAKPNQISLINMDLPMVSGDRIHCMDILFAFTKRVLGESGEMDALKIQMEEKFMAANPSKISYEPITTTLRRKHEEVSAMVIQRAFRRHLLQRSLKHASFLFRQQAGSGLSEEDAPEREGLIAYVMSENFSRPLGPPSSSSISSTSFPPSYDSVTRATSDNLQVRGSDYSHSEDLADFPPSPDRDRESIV

What is called IC50 is the concentration at which inhibition is half-maximal. Read a high IC50 as a need for much substance. As for `O=C(N[C@H]1COc2ccc(CC(F)F)cc2C1)c1cc2n(n1)CCC(COC(F)(F)F)O2` (stereo partly shown) [Example 135], the figures for the IC50 in series [1] (setting [3]) and in series [2] (setting [4]) were 1 to 3 µM and less than 1 µM, respectively.
For `O=C(N[C@H]1COc2ccc(CC(F)F)cc2C1)c1cc2n(n1)CCC(COC(F)F)O2` (stereo partly shown) [Example 137] the same measures were no less than 3 µM and less than 1 µM.
For `O=C(N[C@H]1COc2ccc(COCC(F)(F)F)cc2C1)c1cc2n(n1)CCC(COC(F)F)O2` (stereo partly shown) [Example 139], in that order: no less than 3 µM and less than 1 µM.
`O=C(N[C@H]1COc2ccc(CCOC(F)F)cc2C1)c1cc2n(n1)CCC(COC(F)F)O2` (stereo partly shown) [Example 141]: the IC50 in series [1] (setting [5]) is no less than 3 µM; in series [2] (setting [6]) it was less than 1 µM.
Regarding `N#Cc1ccc2c(c1)C[C@@H](NC(=O)c1cc3n(n1)CCC(CCOC(F)(F)F)O3)CO2` (stereo partly shown) [Example 143], the IC50 was no less than 3 µM in series [1] (setting [5]) and less than 1 µM in series [2] (setting [6]).
For `N#Cc1ccc2c(c1)C[C@@H](NC(=O)c1cc3n(n1)CCC(CCOC(F)F)O3)CO2` (stereo partly shown) [Example 145] the same measures were no less than 3 µM and less than 1 µM.
`O=C(N[C@H]1COc2ccc(CC(F)F)cc2C1)c1cc2n(n1)CCC(CCOC(F)F)O2` (stereo partly shown) [Example 147]: the IC50 in series [1] (setting [5]) is no less than 3 µM; in series [2] (setting [6]), less than 1 µM.
Take `O=C(N[C@H]1COc2ccc(COCC(F)(F)F)cc2C1)c1cc2n(n1)CCC(CCOC(F)F)O2` (stereo partly shown) [Example 149]: the figures for the IC50 in series [1] (setting [5]) and in series [2] (setting [6]) were 1 to 3 µM and less than 1 µM, respectively.
Consider `O=C(N[C@H]1COc2ccc(Cl)cc2C1)c1cc2n(n1)CCC(CNCC(F)(F)F)O2` (stereo partly shown) [Example 151], for which the half-inhibitory concentration (IC50) was 1 to 3 µM in series [1] (setting [5]) and less than 1 µM in series [2] (setting [6]).
As to `N#Cc1ccc2c(c1)C[C@@H](NC(=O)c1cc3n(n1)CCC(CSC(F)(F)F)O3)CO2` (stereo partly shown) [Example 155], the IC50 was no less than 3 µM in series [1] (setting [5]) and less than 10 µM in series [2] (setting [6]).
Turning to `O=C(N[C@H]1COc2ccc(Cl)cc2C1)c1cc2n(n1)CCC(C(F)F)O2` (stereo partly shown) [Example 157], the IC50 was no less than 3 µM in series [1] (setting [5]) and less than 10 µM in series [2] (setting [6]).
For `O=C(N[C@H]1COc2ccc(Br)cc2C1)c1cc2n(n1)CCC(C(F)F)O2` (stereo partly drawn) [Example 159, N—((R)-6-bromochroman-3-yl)-5-(difluoromethyl)-6,7-dihydro-5H-pyrazolo[5,1-b][1,3]oxazine-2-carboxamide], in that order: no less than 3 µM and less than 1 µM.
For `O=C(N[C@H]1COc2ccc(COCC(F)(F)F)cc2C1)c1cc2n(n1)CCC(C(F)F)O2` (stereo partly shown) [Example 162], the figures for the IC50 in series [1] (setting [5]) and in series [2] (setting [6]) were no less than 3 µM and less than 1 µM, respectively.
As for `O=C(N[C@H]1COc2ccc(CCOC(F)F)cc2C1)c1cc2n(n1)CCC(C(F)F)O2` (stereo partly shown) [Example 164], the IC50 in series [1] (setting [5]) was no less than 3 µM; in series [2] (setting [6]), less than 1 µM.
For `CC(F)(F)C1CCn2nc(C(=O)N[C@H]3COc4ccc(Cl)cc4C3)cc2O1` (stereo partly shown) [Example 167] the same measures were 1 to 3 µM and less than 1 µM.
For `CCC(O)(CC)C1CCn2nc(C(=O)N[C@H]3COc4ccc(Cl)cc4C3)cc2O1` (stereo partly shown) [Example 168], in that order: no less than 3 µM and less than 10 µM.
For `O=C(N[C@H]1COc2ccc(Cl)cc2C1)c1cc2n(n1)CCC(C(F)(F)F)O2` (stereo partly shown) [Example 169], in that order: 1 to 3 µM and less than 1 µM.
Take `O=C(N[C@H]1COc2ccc(Br)cc2C1)c1cc2n(n1)CCC(C(F)(F)F)O2` (stereo partly shown) [Example 171]: the figures for the IC50 in series [1] (setting [5]) and in series [2] (setting [6]) were 1 to 3 µM and less than 1 µM, respectively.
With `O=C(N[C@H]1COc2ccc(CC(F)F)cc2C1)c1cc2n(n1)CCC(C(F)(F)F)O2` (stereo partly shown) [Example 172], the figures for the IC50 in series [1] (setting [5]) and in series [2] (setting [6]) were no less than 3 µM and less than 10 µM, respectively.
For `N#Cc1ccc(-c2ccc3c(c2)C[C@@H](NC(=O)c2cc4n(n2)CCC(C(F)(F)F)O4)CO3)cn1` (stereo partly shown) [Example 174] the same measures were no less than 3 µM and less than 1 µM.
With `Cc1ccc(-c2ccc3c(c2)C[C@@H](NC(=O)c2cc4n(n2)CCC(C(F)(F)F)O4)CO3)cn1` (stereo partly shown) [Example 175], the concentration for half-maximal inhibition (IC50) in series [1] (setting [5]) is no less than 3 µM; in series [2] (setting [6]), less than 10 µM.
For `CC1(C)CCn2nc(C(=O)N[C@H]3COc4ccc(Cl)cc4C3)cc2O1` [Example 177], in that order: 1 to 3 µM and less than 1 µM.
Consider `CC1(C)CCn2nc(C(=O)N[C@H]3COc4ccc(C#N)cc4C3)cc2O1` [Example 178], for which the IC50 was no less than 3 µM in series [1] (setting [5]) and less than 10 µM in series [2] (setting [6]).
For `O=C(N[C@H]1COc2ccccc2C1)c1cc2n(n1)CC(c1ccccc1)O2` (stereo partly shown) [Example 181], in that order: no less than 3 µM and less than 1 µM.
For `O=C(N[C@H]1COc2ccc(COCC(F)(F)F)cc2C1)c1cc2n(n1)CC(COCC1CC1)O2` (stereo partly shown) [Example 185], the figures for the IC50 in series [1] (setting [5]) and in series [2] (setting [6]) were no less than 3 µM and less than 1 µM, respectively.
For `O=C(N[C@H]1COc2ccc(COCC(F)(F)F)cc2C1)c1cc2n(n1)CC(COCC(F)(F)F)O2` (stereo partly drawn) [Example 187, 2-((2,2,2-trifluoroethoxy)methyl)-N—((R)-6-((2,2,2-trifluoroethoxy)methyl)chroman-3-yl)-2,3-dihydropyrazolo[5,1-b]oxazole-6-carboxamide] the same measures were no less than 3 µM and less than 1 µM.
In the case of `O=C(N[C@H]1COc2ccc(CCOC(F)F)cc2C1)c1cc2n(n1)CC(COCC(F)(F)F)O2` (stereo partly shown) [Example 189], the 50% inhibitory concentration (IC50) in series [1] (setting [5]) was no less than 3 µM; in series [2] (setting [6]), less than 1 µM.
Regarding `O=C(N[C@H]1COc2ccc(COCC(F)(F)F)cc2C1)c1cc2n(n1)CC(COC(F)(F)F)O2` (stereo partly shown) [Example 195], the IC50 was no less than 3 µM in series [1] (setting [5]) and less than 1 µM in series [2] (setting [6]).
In the case of `O=C(N[C@H]1COc2ccc(CC(F)F)cc2C1)c1cc2n(n1)CC(COC(F)(F)F)O2` (stereo partly shown) [Example 197], the 50% inhibitory concentration (IC50) is no less than 3 µM in series [1] (setting [5]) and less than 1 µM in series [2] (setting [6]).
As for `N#Cc1ccc2c(c1)C[C@@H](NC(=O)c1cc3n(n1)CC(CSCC(F)(F)F)O3)CO2` (stereo partly shown) [Example 199], the IC50 in series [1] (setting [5]) was no less than 3 µM; in series [2] (setting [6]) it was less than 10 µM.
Turning to `N#Cc1ccc2c(c1)C[C@@H](NC(=O)c1cc3n(n1)CC(CCOCC1CC1)O3)CO2` (stereo partly drawn) [Example 201, N—((R)-6-cyanochroman-3-yl)-2-(2-(cyclopropylmethoxy)ethyl)-2,3-dihydropyrazolo[5,1-b]oxazole-6-carboxamide], the half-inhibitory concentration (IC50) in series [1] (setting [5]) was 1 to 3 µM; in series [2] (setting [6]), less than 1 µM.
For `Cn1ccc(-c2ccc3c(c2)C[C@@H](NC(=O)c2cc4n(n2)CC(CCOCC(F)(F)F)O4)CO3)n1` (stereo partly shown) [Example 205] the same measures were no less than 3 µM and less than 10 µM.
For `N#Cc1ccc2c(c1)C[C@@H](NC(=O)c1cc3n(n1)CC(CCOC(F)(F)F)O3)CO2` (stereo partly shown) [Example 208], the IC50 in series [1] (setting [5]) and in series [2] (setting [6]) was less than 1 µM in each case.
Consider `Cn1ccc(-c2ccc3c(c2)C[C@@H](NC(=O)c2cc4n(n2)CC(CCOC(F)(F)F)O4)CO3)n1` (stereo partly shown) [Example 212], for which the results for the IC50 in series [1] (setting [5]) and in series [2] (setting [6]) were no less than 3 µM and less than 1 µM, respectively.
For `O=C(N[C@H]1COc2ccc(COCC(F)(F)F)cc2C1)c1cc2n(n1)CC(CCOC(F)F)O2` (stereo partly shown) [Example 214] the same measures were 1 to 3 µM and less than 1 µM.
`O=C(N[C@H]1COc2ccc(CC(F)F)cc2C1)c1cc2n(n1)CC(CCOC(F)F)O2` (stereo partly shown) [Example 218]: the values for the IC50 in series [1] (setting [5]) and in series [2] (setting [6]) were no less than 3 µM and less than 1 µM, respectively.
For `Cn1cc(-c2ccc3c(c2)C[C@@H](NC(=O)c2cc4n(n2)CC(CCOC(F)F)O4)CO3)cn1` (stereo partly shown) [Example 220] the same measures were 1 to 3 µM and less than 10 µM.
For `O=C(N[C@H]1COc2ccc(-c3cnccn3)cc2C1)c1cc2n(n1)CC(CCOC(F)F)O2` (stereo partly shown) [Example 222], in that order: no less than 3 µM and less than 1 µM.
For `O=C(N[C@H]1COc2ccc(Cl)cc2C1)c1cc2n(n1)CC(CCNCC(F)(F)F)O2` (stereo partly shown) [Example 225] the same measures were 1 to 3 µM and less than 1 µM.
On to `Cc1ccc2c(c1)C[C@@H](NC(=O)c1cc3n(n1)CC(CCNCC(F)(F)F)O3)CO2` (stereo partly shown) [Example 227], for which the figures for the IC50 in series [1] (setting [5]) and in series [2] (setting [6]) were 1 to 3 µM and less than 1 µM, respectively.
For `O=C(N[C@H]1COc2ccc(C(F)(F)F)cc2C1)c1cc2n(n1)CC(CCNCC(F)(F)F)O2` (stereo partly shown) [Example 229] the same measures were 1 to 3 µM and less than 1 µM.
For `O=C(N[C@H]1COc2ccc(COCC(F)(F)F)cc2C1)c1cc2n(n1)CC(CCNCC(F)(F)F)O2` (stereo partly shown) [Example 231], in that order: no less than 3 µM and less than 1 µM.
For `O=C(N[C@H]1COc2ccc(Cl)cc2C1)c1cc2n(n1)CC(CCN1CC(F)(F)C1)O2` (stereo partly shown) [Example 233], in that order: less than 1 µM and less than 1 µM.
On to `N#Cc1ccc2c(c1)C[C@@H](NC(=O)c1cc3n(n1)CC(CCSCC(F)(F)F)O3)CO2` (stereo partly shown) [Example 243], for which the IC50 in series [1] (setting [5]) was no less than 3 µM; in series [2] (setting [6]), less than 1 µM.
Take `N#Cc1ccc2c(c1)C[C@@H](NC(=O)c1cc3n(n1)CC(CCCOCC(F)(F)F)O3)CO2` (stereo partly shown) [Example 245]: the IC50 was 1 to 3 µM in series [1] (setting [5]) and less than 1 µM in series [2] (setting [6]).
For `N#Cc1ccc2c(c1)C[C@@H](NC(=O)c1cc3n(n1)CCCC(c1ccccc1)O3)CO2` (stereo partly shown) [Example 251], in that order: no less than 3 µM and less than 1 µM.
For `N#Cc1ccc2c(c1)C[C@@H](NC(=O)c1cc3n(n1)CCC(OC(F)(F)F)CO3)CO2` (stereo partly drawn) [Example 252, N—((R)-6-cyanochroman-3-yl)-6-(trifluoromethoxy)-5,6,7,8-tetrahydropyrazolo[5,1-b][1,3]oxazepine-2-carboxamide] the same measures were no less than 3 µM and less than 1 µM.
